# Laboratory results reported in patent US12564638B2 (SHANGHAITECH UNIVERSITY, priority 2019, dated 2026).
# Key:
# [1] = tested on: HCC827 cells (EGFR Exon19 del, non-small cell lung cancer cells); assay: Cell viability assay (WST/CCK8), HCC827 cells; type: cell-based; conditions: Homo sapiens, HCC827, 72 h, HCC827 (Exon19 Del), 72 hours, WST (CCK8); read-out: IC50 (half inhibitory concentration)
# Procedure, shortened: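 Plated 3 000 cells/well in complete RPMI1640 the day before dosing; controls were DMSO (negative) and EGFR TKIs (positive).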
# [2] = tested on: PC9 cells (EGFR Exon 19 del, non-small cell lung cancer cells); assay: Cell viability assay (WST/CCK8), PC9 cells; type: cell-based; conditions: Homo sapiens, PC-9; PC9 (Exon19 Del), 72 hours, WST (CCK8); read-out: IC50 (half inhibitory concentration)
# From the text: The cell lines with abnormal EGFR expression used are as follows: • HCC827 cells (EGFR Exon19 del, non-small cell lung cancer cells); • PC9 cells (EGFR Exon 19 del, non-small cell lung cancer cells); • PC9BracA1 (EGFR Exon 19 del+T790M, non-small cell lung cancer cells) • H1975 (EGFR Exon T790M+L858R mutation, non-small cell lung cancer cell line) • BT474 cells (HER2 positive breast cancer cells)
# All of the half inhibitory concentrations (IC50) of these compounds of the present invention were determined with WST reagent from Fuyuan Biotec Company. The specific experiment procedures are as follows: Cancer cells were planted in 96-well-plate at the density of 3 000 cells per well with 100 μL RPMI1640 completed culture medium. In the next day, compounds with indicated concentrations were added to the cells, DMSO was used as the negative control and the EGFR TKIs were used to treat cells as the positive groups. After 72 hours drug treatment, cell viability was measured by using the WST reagent following the instructions.
# The cells were treated with the gradient concentration of these compounds (the maximum concentration: 10 μM; 3-fold dilution ratio, 10 concentration gradients) for 72 hours and then incubated with the WST (CCK8) reagent to determine the cell viability.
Compound,IC50 [1],IC50 [2]
"COc1cc2ncnc(Nc3ccc(F)c(Cl)c3)c2cc1NC(=O)/C=C/CN1CCN(C(=O)COCCSc2cccc3c2C(=O)N(C2CCC(=O)NC2=O)C3=O)CC1 (stereo not shown) [SIAIS219192, (E)-N-(4-((3-chloro-4-fluorophenyl)amino)-7-methoxyquinazolin-6-yl)-4-(4-(2-(2-((2-(2,6-dioxopiperidin-3-yl)-1,3-dioxoisoindolin-4-yl)thio)ethoxy)acetyl)piperazin-1-yl)but-2-enamide]",16.4 nM,8.9 nM
"COc1cc2ncnc(Nc3ccc(F)c(Cl)c3)c2cc1NC(=O)/C=C/CN1CCN(C(=O)COCCSc2cccc3c2CN(C2CCC(=O)NC2=O)C3=O)CC1 (stereo not shown) [SIAIS219193, (E)-N-(4-((3-chloro-4-fluorophenyl)amino)-7-methoxyquinazolin-6-yl)-4-(4-(2-(2-((2-(2,6-dioxopiperidin-3-yl)-1-oxoisoindolin-4-yl)thio)ethoxy)acetyl)piperazin-1-yl)but-2-enamide]",2.2 nM,43.6 nM
"COc1cc2ncnc(Nc3ccc(F)c(Cl)c3)c2cc1NC(=O)/C=C/CN1CCN(C(=O)CNc2cccc3c2C(=O)N(C2CCC(=O)NC2=O)C3=O)CC1 (stereo not shown) [SIAIS219194, (E)-N-(4-((3-chloro-4-fluorophenyl)amino)-7-methoxyquinazolin-6-yl)-4-(4-(2-((2-(2,6-dioxopiperidin-3-yl)-1,3-dioxoisoindolin-4-yl)amino)acetyl)piperazin-1-yl)but-2-enamide]",5.3 nM,4 nM
"COc1cc2ncnc(Nc3ccc(F)c(Cl)c3)c2cc1NC(=O)/C=C/CN1CCN(C(=O)CSc2cccc3c2C(=O)N(C2CCC(=O)NC2=O)C3=O)CC1 (stereo not shown) [SIAIS249034, (E)-N-(4-((3-chloro-4-fluorophenyl)amino)-7-methoxyquinazolin-6-yl)-4-(4-(2-((2-(2,6-dioxopiperidin-3-yl)-1,3-dioxoisoindolin-4-yl)thio)acetyl)piperazin-1-yl)but-2-enamide]",23 nM,167 nM
"COc1cc2ncnc(Nc3ccc(F)c(Cl)c3)c2cc1NC(=O)/C=C/CN1CCN(C(=O)CCSc2cccc3c2C(=O)N(C2CCC(=O)NC2=O)C3=O)CC1 (stereo not shown) [SIAIS249035, (E)-N-(4-((3-chloro-4-fluorophenyl)amino)-7-methoxyquinazolin-6-yl)-4-(4-(3-((2-(2,6-dioxopiperidin-3-yl)-1,3-dioxoisoindolin-4-yl)thio)propanoyl)piperazin-1-yl)but-2-enamide]",10 nM,56.5 nM
"COc1cc2ncnc(Nc3ccc(F)c(Cl)c3)c2cc1NC(=O)/C=C/CN1CCN(C(=O)CCCSc2cccc3c2C(=O)N(C2CCC(=O)NC2=O)C3=O)CC1 (stereo not shown) [SIAIS249036, (E)-N-(4-((3-chloro-4-fluorophenyl)amino)-7-methoxyquinazolin-6-yl)-4-(4-(4-((2-(2,6-dioxopiperidin-3-yl)-1,3-dioxoisoindolin-4-yl)thio)butanoyl)piperazin-1-yl)but-2-enamide]",8.1 nM,47.7 nM
"COc1cc2ncnc(Nc3ccc(F)c(Cl)c3)c2cc1NC(=O)/C=C/CN1CCN(C(=O)CCCCSc2cccc3c2C(=O)N(C2CCC(=O)NC2=O)C3=O)CC1 (stereo not shown) [SIAIS249037, (E)-N-(4-((3-chloro-4-fluorophenyl)amino)-7-methoxyquinazolin-6-yl)-4-(4-(5-((2-(2,6-dioxopiperidin-3-yl)-1,3-dioxoisoindolin-4-yl)thio)pentanoyl)piperazin-1-yl)but-2-enamide]",6.6 nM,28.7 nM
"COc1cc2ncnc(Nc3ccc(F)c(Cl)c3)c2cc1NC(=O)/C=C/CN1CCN(C(=O)CCCCCSc2cccc3c2C(=O)N(C2CCC(=O)NC2=O)C3=O)CC1 (stereo not shown) [SIAIS249038, (E)-N-(4-((3-chloro-4-fluorophenyl)amino)-7-methoxyquinazolin-6-yl)-4-(4-(6-((2-(2,6-dioxopiperidin-3-yl)-1,3-dioxoisoindolin-4-yl)thio)hexanoyl)piperazin-1-yl)but-2-enamide]",4.7 nM,22.9 nM
"COc1cc2ncnc(Nc3ccc(F)c(Cl)c3)c2cc1NC(=O)/C=C/CN1CCN(C(=O)CCCCCCSc2cccc3c2C(=O)N(C2CCC(=O)NC2=O)C3=O)CC1 (stereo not shown) [SIAIS249039, (E)-N-(4-((3-chloro-4-fluorophenyl)amino)-7-methoxyquinazolin-6-yl)-4-(4-(7-((2-(2,6-dioxopiperidin-3-yl)-1,3-dioxoisoindolin-4-yl)thio)heptanoyl)piperazin-1-yl)but-2-enamide]",5.2 nM,18.7 nM
"COc1cc2ncnc(Nc3ccc(F)c(Cl)c3)c2cc1NC(=O)/C=C/CN1CCN(C(=O)CCC(=O)N[C@H](C(=O)N2C[C@H](O)C[C@H]2C(=O)NCc2ccc(-c3scnc3C)cc2)C(C)(C)C)CC1 [SIAIS249041, (2S,4R)-1-((S)-2-(4-(4-((E)-4-((4-((3-chloro-4-fluorophenyl)amino)-7-methoxyquinazolin-6-yl)amino)-4-oxobut-2-en-1-yl)piperazin-1-yl)-4-oxobutanamido)-3,3-dimethylbutanoyl)-4-hydroxy-N-(4-(4-methylthiazol-5-yl)benzyl)pyrrolidine-2-carboxamide]",38.3 nM,99 nM
"COc1cc2ncnc(Nc3ccc(F)c(Cl)c3)c2cc1NC(=O)/C=C/CN1CCN(C(=O)CCCCCCC(=O)N[C@H](C(=O)N2C[C@H](O)C[C@H]2C(=O)NCc2ccc(-c3scnc3C)cc2)C(C)(C)C)CC1 [SIAIS249043, (2S,4R)-1-((S)-2-(8-(4-((E)-4-((4-((3-chloro-4-fluorophenyl)amino)-7-methoxyquinazolin-6-yl)amino)-4-oxobut-2-en-1-yl)piperazin-1-yl)-8-oxooctanamido)-3,3-dimethylbutanoyl)-4-hydroxy-N-(4-(4-methylthiazol-5-yl)benzyl)pyrrolidine-2-carboxamide]",19.3 nM,70.6 nM
"COc1cc2ncnc(Nc3ccc(F)c(Cl)c3)c2cc1NC(=O)/C=C/CN1CCN(C(=O)CCOCCOCCC(=O)N[C@H](C(=O)N2C[C@H](O)C[C@H]2C(=O)NCc2ccc(-c3scnc3C)cc2)C(C)(C)C)CC1 [SIAIS249045, (2S,4R)-1-((S)-2-(3-(2-(3-(4-((E)-4-((4-((3-chloro-4-fluorophenyl)amino)-7-methoxyquinazolin-6-yl)amino)-4-oxobut-2-en-1-yl)piperazin-1-yl)-3-oxopropoxy)ethoxy)propanamido)-3,3-dimethylbutanoyl)-4-hydroxy-N-(4-(4-methylthiazol-5-yl)benzyl)pyrrolidine-2-carboxamide]",41.9 nM,691 nM
"COc1cc2ncnc(Nc3ccc(F)c(Cl)c3)c2cc1NC(=O)/C=C/CN1CCN(C(=O)CCOCCNc2cccc3c2C(=O)N(C2CCC(=O)NC2=O)C3=O)CC1 (stereo not shown) [SIAIS249046, (E)-N-(4-((3-chloro-4-fluorophenyl)amino)-7-methoxyquinazolin-6-yl)-4-(4-(3-(2-((2-(2,6-dioxopiperidin-3-yl)-1,3-dioxoisoindolin-4-yl)amino)ethoxy)propanoyl)piperazin-1-yl)but-2-enamide]",3.4 nM,57 nM
"COc1cc2ncnc(Nc3ccc(F)c(Cl)c3)c2cc1NC(=O)/C=C/CN1CCN(C(=O)CCCCNc2cccc3c2C(=O)N(C2CCC(=O)NC2=O)C3=O)CC1 (stereo not shown) [SIAIS249048, (E)-N-(4-((3-chloro-4-fluorophenyl)amino)-7-methoxyquinazolin-6-yl)-4-(4-(5-((2-(2,6-dioxopiperidin-3-yl)-1,3-dioxoisoindolin-4-yl)amino)pentanoyl)piperazin-1-yl)but-2-enamide]",3.2 nM,10.3 nM
"COc1cc2ncnc(Nc3ccc(F)c(Cl)c3)c2cc1NC(=O)/C=C/CN1CCN(C(=O)CCCCCNc2cccc3c2C(=O)N(C2CCC(=O)NC2=O)C3=O)CC1 (stereo not shown) [SIAIS249049, (E)-N-(4-((3-chloro-4-fluorophenyl)amino)-7-methoxyquinazolin-6-yl)-4-(4-(6-((2-(2,6-dioxopiperidin-3-yl)-1,3-dioxoisoindolin-4-yl)amino)hexanoyl)piperazin-1-yl)but-2-enamide]",4.6 nM,16 nM
"COc1cc2ncnc(Nc3ccc(F)c(Cl)c3)c2cc1NC(=O)/C=C/CN1CCN(C(=O)CNc2cccc3c2CN(C2CCC(=O)NC2=O)C3=O)CC1 (stereo not shown) [SIAIS249056, (E)-N-(4-((3-chloro-4-fluorophenyl)amino)-7-methoxyquinazolin-6-yl)-4-(4-(2-((2-(2,6-dioxopiperidin-3-yl)-1-oxoisoindolin-4-yl)amino)acetyl)piperazin-1-yl)but-2-enamide]",7.3 nM,4 nM
"COc1cc2ncnc(Nc3ccc(F)c(Cl)c3)c2cc1NC(=O)/C=C/CN1CCN(C(=O)CCCNc2cccc3c2CN(C2CCC(=O)NC2=O)C3=O)CC1 (stereo not shown) [SIAIS249057, (E)-N-(4-((3-chloro-4-fluorophenyl)amino)-7-methoxyquinazolin-6-yl)-4-(4-(4-((2-(2,6-dioxopiperidin-3-yl)-1-oxoisoindolin-4-yl)amino)butanoyl)piperazin-1-yl)but-2-enamide]",11.5 nM,7.8 nM
